Reference: publication PMC7076571 (Neoplasia (New York, N.Y.), 2020)

Legend:
Format in all cases: biochemical
RBX1 = RBX1 (Homo sapiens, UniProt P62877+Q13616, Q13616:L421E/Q13616:V451E/Q13616:V452K/Q13616:Y455K); assay: in vitro CUL1 neddylation assay
CUL5 = biological target: T1, CUL5 (Homo sapiens, UniProt Q93034+Q9UBF6, Q93034:L407E/Q93034:L439K/Q93034:V440K); assay: in vitro CUL5 neddylation assay
T1 sequence (Q93034 401-780 L407E/L439K/V440K): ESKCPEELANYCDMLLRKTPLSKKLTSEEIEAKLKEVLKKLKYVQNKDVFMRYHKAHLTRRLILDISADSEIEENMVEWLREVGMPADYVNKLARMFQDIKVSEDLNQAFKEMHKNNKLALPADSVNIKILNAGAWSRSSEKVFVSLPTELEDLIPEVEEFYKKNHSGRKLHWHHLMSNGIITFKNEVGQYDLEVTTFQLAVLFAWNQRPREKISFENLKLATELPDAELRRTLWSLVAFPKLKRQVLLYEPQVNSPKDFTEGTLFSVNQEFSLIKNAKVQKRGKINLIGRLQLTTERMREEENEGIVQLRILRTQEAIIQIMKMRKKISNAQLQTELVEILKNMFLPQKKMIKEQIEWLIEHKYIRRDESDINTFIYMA
T1 sequence (Q9UBF6 2-113): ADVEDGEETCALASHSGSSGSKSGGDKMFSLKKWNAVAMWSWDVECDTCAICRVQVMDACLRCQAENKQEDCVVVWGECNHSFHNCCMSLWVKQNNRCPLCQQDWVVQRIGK

SAG = biological target: T2, SAG (Homo sapiens, UniProt Q93034+Q9UBF6, Q93034:L407E/Q93034:L439K/Q93034:V440K); assay: in vitro CUL5 neddylation assay
T2 sequence (Q9UBF6 2-113): T1 sequence (Q9UBF6 2-113)
T2 sequence (Q93034 401-780 L407E/L439K/V440K): T1 sequence (Q93034 401-780 L407E/L439K/V440K)

Chain of RBX1 (Q13616 411-776 L421E/V451E/V452K/Y455K): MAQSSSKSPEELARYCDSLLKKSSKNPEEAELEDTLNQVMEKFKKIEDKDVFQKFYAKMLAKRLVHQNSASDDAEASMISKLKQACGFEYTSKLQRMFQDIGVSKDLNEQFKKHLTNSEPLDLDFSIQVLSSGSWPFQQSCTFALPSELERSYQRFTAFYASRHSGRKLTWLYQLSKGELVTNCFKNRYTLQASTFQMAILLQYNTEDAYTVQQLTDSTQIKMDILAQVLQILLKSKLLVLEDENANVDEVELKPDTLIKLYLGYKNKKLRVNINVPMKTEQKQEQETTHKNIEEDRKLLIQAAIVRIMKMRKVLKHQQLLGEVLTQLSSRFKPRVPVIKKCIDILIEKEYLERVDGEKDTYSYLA
Chain of RBX1 (P62877 whole entry): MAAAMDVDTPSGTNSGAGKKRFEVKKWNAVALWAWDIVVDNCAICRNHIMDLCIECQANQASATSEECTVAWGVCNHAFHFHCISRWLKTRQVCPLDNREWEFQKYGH

**Q.** With `Cc1cc2c(C(C)C)c(O)c(O)c(C=O)c2c(O)c1-c1c(C)cc2c(C(C)C)c(O)c(O)c(C=O)c2c1O` [gossypol] as the molecule, how does the IC50 (RBX1) read?
**A.** 3.4 µM

**Q.** What about the IC50 (CUL5) of the same molecule?
**A.** 4.25 µM

**Q.** What about the IC50 (SAG) of the same molecule?
**A.** 4.25 µM
